Some test systems named below: HCT-116; SF-268; SF-295; K562; HT-29; OVCAR-3; HOP-92; A498; UACC-62; BT-549; NCI-H522; MDA-MB-231; T47D; HCC 2998; DU-145; OVCAR-8; Hs-578T; A549; SK-MEL-5; HCT-15.
Common to all, as to test: NCI-60 cell line screen, 48 h

The values that follow come from ChEMBL document CHEMBL1201862, “PubChem BioAssay data set” (2004).

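Exposure lasted 48 hours, with cells grown in 96-well plates and compounds tested at five concentrations. At the GI50, growth is halved.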 Activity calls are given as the source filed them. Rule as the data show it: active = GI50 up to about 1.1 µM and inactive = higher. Some results are limits rather than exact numbers.

For the compound `CC1(C)OCC(CO)(Nc2nc(N3CC3)nc(N3CC3)n2)CO1`, the GI50 was 1.85 µM (inactive) in the test with HCT-116; 4.07 µM (inactive) in the test on SF-268; 2.96 µM (inactive) in the test with SF-295; 12.7 µM (inactive) in the test with K562; 13.9 µM (inactive) in the test with HT-29; 20.4 µM (inactive) in the test with OVCAR-3. The GI50 in the test on HOP-92 is 15.3 µM (inactive); in the test on A498, 10.2 µM (inactive); with UACC-62, 3.15 µM (inactive); in the test on BT-549 it was 26.1 µM (inactive); in the test on NCI-H522 it was 13.2 µM (inactive); with MDA-MB-231, > 10 µM (inactive). Besides, the GI50 in the test on T47D is 1.49 µM (inactive); in the test on HCC 2998 it was 16.9 µM (inactive); in the test with DU-145, 1.3 µM (inactive); in the test with OVCAR-8, 11.3 µM (inactive); with Hs-578T it was 19 µM (inactive); in the test on A549 it was 4.05 µM (inactive). Besides, the GI50 with SK-MEL-5 is 8.18 µM (inactive); in the test on HCT-15, 15.2 µM.

Regarding `C#CC1(O)CCC2[C@@H]3CCc4cc(Oc5nc(F)nc(-c6c(C)c(C(=O)OCC)n7ccccc67)n5)ccc4C3CC[C@@]21C` (stereo not given in full), the GI50 was > 100 µM (inactive) in the test on HCT-116; > 100 µM (inactive) with SF-268; > 100 µM (inactive) in the test with SF-295; 29.6 µM (inactive) with K562; > 100 µM (inactive) in the test on HT-29; > 100 µM (inactive) with OVCAR-3. The GI50 in the test with HOP-92, in the test with A498, in the test with UACC-62, in the test on BT-549, with NCI-H522 and in the test on MDA-MB-231 was > 100 µM (inactive) in each case. Besides, the GI50 in the test with T47D, in the test with HCC 2998, with DU-145, with OVCAR-8, in the test with Hs-578T and in the test on A549 was > 100 µM (inactive) in each case. Besides, the GI50 in the test with SK-MEL-5 was > 100 µM (inactive); in the test with HCT-15 it was more than 100 µM.

As to `CC(=O)Nc1ccc2c(C)c3c(nc2n1)[nH]c1ccccc13`, the GI50 is 21.6 µM (inactive) in the test with HCT-116; 33 µM (inactive) in the test with SF-268; 34.3 µM (inactive) in the test with SF-295; 35.5 µM (inactive) in the test with K562; 27.9 µM (inactive) in the test on HT-29; 23.9 µM (inactive) with OVCAR-3. In addition, the GI50 with HOP-92 is 20.4 µM (inactive); with A498, 60.7 µM (inactive); in the test with UACC-62, 22.6 µM (inactive); in the test with BT-549, 31.9 µM (inactive); in the test with NCI-H522, 20 µM (inactive); with MDA-MB-231, 35.1 µM (inactive). Further, the GI50 in the test with T47D is 13.3 µM (inactive); in the test with HCC 2998, 33 µM (inactive); in the test with DU-145, 33.6 µM (inactive); with OVCAR-8, 24.9 µM (inactive); in the test with Hs-578T it was 19.8 µM (inactive); in the test on A549, 41.1 µM (inactive). Moreover, the GI50 in the test on SK-MEL-5 was 14.9 µM (inactive); in the test on HCT-15, 15.5 µM.

`CC(C)OC(=O)c1ccc(NCc2cc(O)ccc2O)cc1`: the GI50 with HCT-116 was 5.81 µM (inactive); in the test with SF-268, 4.07 µM (inactive); in the test with SF-295, 6.3 µM (inactive); with K562, 0.946 µM (active); in the test with HT-29 it was 13.7 µM (inactive); with OVCAR-3 it was 1.47 µM (inactive). Further, the GI50 is 1.95 µM (inactive) with HOP-92; 22.5 µM (inactive) with A498; 10.6 µM (inactive) with UACC-62; 2.38 µM (inactive) with BT-549; 0.21 µM (active) in the test on NCI-H522; 2.2 µM (inactive) in the test on MDA-MB-231. In addition, the GI50 in the test on T47D is 2.18 µM (inactive); in the test with HCC 2998 it was 11.1 µM (inactive); with DU-145, 6.11 µM (inactive); in the test with OVCAR-8 it was 2.51 µM (inactive); with Hs-578T, 2.04 µM (inactive); with A549, 7.48 µM (inactive). Moreover, the GI50 with SK-MEL-5 is 3.29 µM (inactive); with HCT-15, 2.69 µM.

For the compound `Cc1nc(C)c(N2CCN([N+](=O)[O-])CC2)c(O)n1`, the GI50 in the test on HCT-116, with SF-268, in the test on SF-295, in the test on K562, with HT-29 and in the test with OVCAR-3 was > 100 µM (inactive) each time. In addition, the GI50 in the test with HOP-92, in the test with A498, in the test on UACC-62, with BT-549, with NCI-H522 and in the test with MDA-MB-231 was > 100 µM (inactive) throughout. For the same compound, the GI50 with T47D, in the test with HCC 2998, with DU-145, with OVCAR-8, with Hs-578T and with A549 was > 100 µM (inactive) in each case. Moreover, the GI50 with SK-MEL-5 was > 100 µM (inactive); in the test on HCT-15, more than 100 µM.

For the compound `CS(=O)(=O)OCCN(CCOS(C)(=O)=O)c1ccc(/C=N/c2cccc(Cl)c2)cc1`, the GI50 is 64.9 µM (inactive) in the test on HCT-116; 7.55 µM (inactive) in the test with SF-268; 1.46 µM (inactive) in the test on SF-295; 23.5 µM (inactive) in the test with K562; 2.69 µM (inactive) in the test with HT-29; 12.1 µM (inactive) in the test with OVCAR-3. In addition, the GI50 in the test with HOP-92 is 23.8 µM (inactive); with A498, 5.38 µM (inactive); with UACC-62, 1.5 µM (inactive); with BT-549 it was 9.98 µM (inactive); in the test on NCI-H522, 0.724 µM (active); with MDA-MB-231 it was 11.5 µM (inactive). The GI50 with T47D is 18.2 µM (inactive); in the test with HCC 2998 it was 2.7 µM (inactive); in the test with DU-145, 1.27 µM (inactive); with OVCAR-8, 10 µM (inactive); in the test on Hs-578T it was 26 µM (inactive); with A549, 2.64 µM (inactive). Moreover, the figures for the GI50 in the test with SK-MEL-5 and with HCT-15 were 6.43 µM (inactive) and 1.02 µM, respectively.

Turning to `c1ccc(CSc2nc(N3CCOCC3)c3cn[nH]c3n2)cc1`, the GI50 in the test on HCT-116 was 30.5 µM (inactive); in the test on SF-268, 20.4 µM (inactive); in the test on SF-295, 24.4 µM (inactive); in the test on K562, 16.2 µM (inactive); in the test with HT-29, 30.8 µM (inactive); with OVCAR-3, 27.7 µM (inactive). In addition, the GI50 in the test with HOP-92 was 0.237 µM (active); in the test on A498 it was 5.71 µM (inactive); with UACC-62, 11.4 µM (inactive); with BT-549, 11.7 µM (inactive); in the test on NCI-H522, 15.6 µM (inactive); with MDA-MB-231 it was 17 µM (inactive). Further, the GI50 with T47D is 15.6 µM (inactive); in the test with HCC 2998 it was 23.6 µM (inactive); in the test on DU-145, 26.2 µM (inactive); in the test on OVCAR-8, 18.4 µM (inactive); in the test on Hs-578T, 13.2 µM (inactive); in the test on A549 it was 22.8 µM (inactive). The GI50 was 15.8 µM (inactive) in the test with SK-MEL-5 and 25.8 µM in the test with HCT-15.

As to `c1ccc(-c2cnc(-c3ccc(-c4ncc(-c5ccccc5)o4)cc3)o2)cc1`, the GI50 in the test with HCT-116, in the test with SF-268, in the test on SF-295, in the test on K562, in the test with HT-29 and in the test with OVCAR-3 was > 100 µM (inactive) in each case. Further, the GI50 in the test on HOP-92, with A498, in the test with UACC-62, in the test on BT-549, in the test on NCI-H522 and in the test with MDA-MB-231 was > 100 µM (inactive) throughout. Moreover, the GI50 in the test on T47D, in the test on HCC 2998, in the test on DU-145, in the test with OVCAR-8, in the test with Hs-578T and in the test on A549 was > 100 µM (inactive) each time. The GI50 is > 100 µM (inactive) with SK-MEL-5 and more than 100 µM in the test with HCT-15.
